From patent publication EP0007672A1, “Isocyanoalkenes, process and useful intermediates for their preparation, pharmaceutical and fungicidal preparations containing those isocyanoalkenes and the use of the fungicidal preparations in agriculture” (GIST-BROCADES N.V., priority 1978, dated 1980)
Converted amounts (≈) assume the structure as drawn. Read-outs that look alike come from different tables or passages of the source.

Experiments:
Test in all cases: MIC (Minimum Inhibitory Concentration)
Assay type in all cases: cell-based
[1] = tested on: Trichophyton soudanese joyeux; details: Trichophyton soudanese joyeux 440-63; read-out: MIC values
[2] = tested on: Trichophyton mentagrophytus
[3] = tested on: Trichophyton equinum
[4] = tested on: Trichophyton quickeaneum; details: read-out: MIC values
[5] = tested on: Trichophyton rubrum
[6] = tested on: Trichophyton tonsurans; details: read-out: MIC values
[7] = tested on: Trichophyton schoenleinii; details: read-out: MIC values
[8] = tested on: Trichophyton violoceum; details: read-out: MIC values
[9] = tested on: Candida albicans
[10] = tested on: Streptococcus haemolyticus; details: Streptococcus, read-out: MIC values
[11] = tested on: Trichophyton verrucosum
[12] = tested on: Pasteurella multocida; details: Pasteurella multocida, read-out: MIC values

`[C-]#[N+]C(=C(C)C)S(=O)(=O)c1ccc(C)cc1` [Example 5, 1-isocyano-2-methyl-1-(4-toluenesulphonyl)-1-propene] showed an MIC [1] of 12.5 µg/mL (≈ 53.1 µM), an MIC ([2]; Trichophyton mentagrophytus 367-68, read-out: MIC values) of 1.5 µg/mL (≈ 6.37 µM) and an MIC ([2]; Trichophyton mentagrophytus 421-67, read-out: MIC values) of 1.5 µg/mL (≈ 6.37 µM). It also gave an MIC ([2]; Trichophyton mentagrophytus A 3252, read-out: MIC values) of 0.8 µg/mL (≈ 3.4 µM), an MIC ([2]; Trichophyton mentagrophytus R 177, read-out: MIC values) of 6 µg/mL (≈ 25.5 µM) and an MIC ([2]; Trichophyton mentagrophytus R 178, read-out: MIC values) of 50 µg/mL (≈ 212 µM). It also gave an MIC ([2]; Trichophyton mentagrophytus RRL 305, read-out: MIC values) of 3 µg/mL (≈ 12.7 µM), an MIC ([3]; Trichophyton equinum 182-76, read-out: MIC values) of 3 µg/mL (≈ 12.7 µM) and an MIC ([3]; Trichophyton equinum 856-71, read-out: MIC values) of 6 µg/mL (≈ 25.5 µM). The MIC ([4]; Trichophyton quickeaneum A 2040) was 0.8 µg/mL (≈ 3.4 µM), the MIC ([5]; Trichophyton rubrum 218-65, read-out: MIC values) was 0.4 µg/mL (≈ 1.7 µM) and the MIC ([5]; Trichophyton rubrum 494-62, read-out: MIC values) was 0.4 µg/mL (≈ 1.7 µM). For the same compound, the MIC ([6]; Trichophyton tonsurans 561-50) was < 0.1 µg/mL, the MIC ([7]; Trichophyton schoenleinii 435-63) was 0.2 µg/mL (≈ 0.85 µM) and the MIC ([8]; Trichophyton violoceum 442-62) was 0.1 µg/mL (≈ 0.425 µM). It also gave an MIC ([9]; Candida albicans A 7, read-out: MIC values) of 3 µg/mL (≈ 12.7 µM), an MIC ([9]; Candida albicans A 3140, read-out: MIC values) of 12.5 µg/mL (≈ 53.1 µM) and an MIC ([9]; Candida albicans A 3141, read-out: MIC values) of 25 µg/mL (≈ 106 µM). It also gave an MIC ([9]; Candida albicans A 3142, read-out: MIC values) of 25 µg/mL (≈ 106 µM), an MIC ([9]; Candida albicans A 3143, read-out: MIC values) of 25 µg/mL (≈ 106 µM) and an MIC ([9]; Candida albicans A 3144, read-out: MIC values) of 25 µg/mL (≈ 106 µM). For the same compound, the MIC ([9]; Candida albicans A 3145, read-out: MIC values) was 12.5 µg/mL (≈ 53.1 µM), the MIC ([9]; Candida albicans A 3165, read-out: MIC values) was 12.5 µg/mL (≈ 53.1 µM) and the MIC ([9]; Candida albicans A 3166, read-out: MIC values) was 12.5 µg/mL (≈ 53.1 µM). For the same compound, the MIC ([9]; Candida albicans A 3167, read-out: MIC values) was 25 µg/mL (≈ 106 µM), the MIC ([9]; Candida albicans A 3168, read-out: MIC values) was 25 µg/mL (≈ 106 µM) and the MIC ([9]; Candida albicans A 3169, read-out: MIC values) was 25 µg/mL (≈ 106 µM). It also gave an MIC ([9]; Candida albicans A 3171, read-out: MIC values) of 12.5 µg/mL (≈ 53.1 µM), an MIC ([9]; Candida albicans A 3184, read-out: MIC values) of 12.5 µg/mL (≈ 53.1 µM) and an MIC ([9]; Candida albicans A 3190, read-out: MIC values) of 12.5 µg/mL (≈ 53.1 µM). The MIC ([9]; Candida albicans A 3191, read-out: MIC values) was 25 µg/mL (≈ 106 µM), the MIC ([9]; Candida albicans A 3192, read-out: MIC values) was 25 µg/mL (≈ 106 µM) and the MIC ([9]; Candida albicans A 3194, read-out: MIC values) was 25 µg/mL (≈ 106 µM). The MIC ([9]; Candida albicans A 3196, read-out: MIC values) was 25 µg/mL (≈ 106 µM).
`[C-]#[N+]C(C1=CCCCCCC1)S(=O)(=O)c1ccc(C)cc1` (stereo not drawn) [Example 20, α-(cycloocten-1-yl)-α-(4-toluenesulphonyl) methylisocyanide] showed an MIC ([2]; read-out: MIC values, Trichophyton mentagrophytus 367-68) of 50 µg/mL (≈ 165 µM), an MIC ([2]; read-out: MIC values, Trichophyton mentagrophytus 421-67) of 100 µg/mL (≈ 330 µM) and an MIC ([2]; read-out: MIC values, Trichophyton mentagrophytus A 3252) of 25 µg/mL (≈ 82.4 µM). For the same compound, the MIC ([2]; read-out: MIC values, Trichophyton mentagrophytus R 177) was 50 µg/mL (≈ 165 µM), the MIC ([2]; read-out: MIC values, Trichophyton mentagrophytus R 178) was > 100 µg/mL and the MIC ([3]; read-out: MIC values, Trichophyton equinum 182-76) was 50 µg/mL (≈ 165 µM). It also gave an MIC ([3]; read-out: MIC values, Trichophyton equinum 441-51) of 12.5 µg/mL (≈ 41.2 µM), an MIC [10] of 12.5 µg/mL (≈ 41.2 µM) and an MIC ([4]; Trichophyton) of 25 µg/mL (≈ 82.4 µM). The MIC ([11]; read-out: MIC values, Trichophyton verrucosum 134-66) was 6 µg/mL (≈ 19.8 µM), the MIC ([11]; read-out: MIC values, Trichophyton verrucosum A 2922) was 6 µg/mL (≈ 19.8 µM) and the MIC ([5]; read-out: MIC values, Trichophyton rubrum 218-65) was 12.5 µg/mL (≈ 41.2 µM). For the same compound, the MIC ([5]; read-out: MIC values, Trichophyton rubrum 494-62) was 12.5 µg/mL (≈ 41.2 µM), the MIC ([5]; read-out: MIC values, Trichophyton rubrum A 810) was 100 µg/mL (≈ 330 µM) and the MIC [12] was 50 µg/mL (≈ 165 µM). For the same compound, the MIC ([6]; Trichophyton tonsurans) was 0.75 µg/mL (≈ 2.47 µM), the MIC ([7]; Trichophyton schoenleinii) was 12.5 µg/mL (≈ 41.2 µM) and the MIC ([8]; Trichophyton) was 12.5 µg/mL (≈ 41.2 µM). The MIC ([9]; read-out: MIC values, Candida albicans A 7) was 6 µg/mL (≈ 19.8 µM), the MIC ([9]; read-out: MIC values, Candida albicans A 3140) was 6 µg/mL (≈ 19.8 µM) and the MIC ([9]; read-out: MIC values, Candida albicans A 3141) was 6 µg/mL (≈ 19.8 µM). It also gave an MIC ([9]; read-out: MIC values, Candida albicans A 3142) of 6 µg/mL (≈ 19.8 µM), an MIC ([9]; read-out: MIC values, Candida albicans A 3143) of 6 µg/mL (≈ 19.8 µM) and an MIC ([9]; read-out: MIC values, Candida albicans A 3144) of 6 µg/mL (≈ 19.8 µM). The MIC ([9]; read-out: MIC values, Candida albicans A 3145) was 6 µg/mL (≈ 19.8 µM), the MIC ([9]; read-out: MIC values, Candida albicans A 3165) was 6 µg/mL (≈ 19.8 µM) and the MIC ([9]; read-out: MIC values, Candida albicans A 3166) was 6 µg/mL (≈ 19.8 µM). The MIC ([9]; read-out: MIC values, Candida albicans A 3167) was 6 µg/mL (≈ 19.8 µM), the MIC ([9]; read-out: MIC values, Candida albicans A 3168) was 6 µg/mL (≈ 19.8 µM) and the MIC ([9]; read-out: MIC values, Candida albicans A 3169) was 6 µg/mL (≈ 19.8 µM). For the same compound, the MIC ([9]; read-out: MIC values, Candida albicans A 3171) was 6 µg/mL (≈ 19.8 µM), the MIC ([9]; read-out: MIC values, Candida albicans A 3184) was 6 µg/mL (≈ 19.8 µM) and the MIC ([9]; read-out: MIC values, Candida albicans A 3190) was 6 µg/mL (≈ 19.8 µM). It also gave an MIC ([9]; read-out: MIC values, Candida albicans A 3191) of 6 µg/mL (≈ 19.8 µM), an MIC ([9]; read-out: MIC values, Candida albicans A 3192) of 6 µg/mL (≈ 19.8 µM) and an MIC ([9]; read-out: MIC values, Candida albicans A 3194) of 3 µg/mL (≈ 9.89 µM). It also gave an MIC ([9]; read-out: MIC values, Candida albicans A 3196) of 6 µg/mL (≈ 19.8 µM).
